# Data from ChEMBL document CHEMBL2150986, “Synthesis and biological evaluation of 1-benzylidene-3,4-dihydronaphthalen-2-one as a new class of microtubule-targeting agents” (J Med Chem, 2012).
# How the values were obtained:
# Mus musculus [1] = assay: Toxicity in nude BALB/c mouse xenografted with human HT-29 cells assessed as mortality at 50 mg/kg, ip qd after 21 days; type: organism-based; design: dose 50 mg/kg, route intraperitoneal; details: in vivo, 504 h
# Mus musculus [2] = assay: Toxicity in ICR mouse assessed as body weight loss at 50 mg/kg, ip administered on day 1 measured for 10 days relative to vehicle-treated control; type: organism-based; design: dose 50 mg/kg, route intraperitoneal; details: in vivo, 240 h
# Mus musculus [3] = assay: Toxicity in nude BALB/c mouse xenografted with human HT-29 cells assessed as change in kidney weight at 50 mg/kg, ip qd after 21 days relative to vehicle-treated control; type: organism-based; design: dose 50 mg/kg, route intraperitoneal; details: in vivo, 504 h
# HT-29 [4] = assay: Antitumor activity against human HT-29 cells xenografted in nude BALB/c mouse assessed as decrease in tumor volume at 30 mg/kg, ip qd measured on day 21 relative to vehicle-treated control; type: functional; details: route intraperitoneal
# Mus musculus [5] = assay: Toxicity in nude BALB/c mouse xenografted with human HT-29 cells assessed as effect on platelet count at 50 mg/kg, ip qd after 21 days (reference value: 1509 +/- 34 x 10^3 mm'-3); type: organism-based; design: dose 50 mg/kg, route intraperitoneal; details: in vivo, 504 h
# HCT-116 = assay: cells; details: Homo sapiens, HCT-116, 72 h
# Mus musculus [6] = assay: Toxicity in nude BALB/c mouse xenografted with human HT-29 cells assessed as effect on lymphocyte count at 50 mg/kg, ip qd after 21 days (reference value: 15.88 +/- 0.41 x 10^3 mm'-3); type: organism-based; design: dose 50 mg/kg, route intraperitoneal; details: in vivo, 504 h
# Mus musculus [7] = assay: Toxicity in nude BALB/c mouse xenografted with human HT-29 cells assessed as body weight change at 50 mg/kg, ip qd after 21 days (reference value: 2.7 g); type: organism-based; design: dose 50 mg/kg, route intraperitoneal; details: in vivo, 504 h
# MDA-MB-435 = assay: cells; details: Homo sapiens, MDA-MB-435, 72 h
# Description: Cytotoxicity against human MDA-MB-435 cells after 72 hrs by MTT assay
# CCRF-CEM = assay: Cytotoxicity against human CEM cells after 72 hrs by MTT assay; type: functional, cell-based
# Mus musculus [8] = assay: Toxicity in ICR mouse assessed as mortality at 50 mg/kg, ip administered on day 1; type: organism-based; design: dose 50 mg/kg, route intraperitoneal; details: in vivo
# HT-29 [9] = assay: Antitumor activity against human HT-29 cells xenografted in nude BALB/c mouse assessed as decrease in tumor volume at 50 mg/kg, ip qd measured on day 21 relative to vehicle-treated control; type: functional; details: route intraperitoneal
# Mus musculus [10] = assay: Toxicity in nude BALB/c mouse xenografted with human HT-29 cells assessed as effect on WBC count at 50 mg/kg, ip qd after 21 days (reference value: 25.38 +/- 0.22 x 10^3 mm'-3); type: organism-based; design: dose 50 mg/kg, route intraperitoneal; details: in vivo, 504 h
# Mus musculus [11] = assay: Toxicity in nude BALB/c mouse xenografted with human HT-29 cells assessed as mortality at 30 mg/kg, ip qd after 21 days; type: organism-based; design: dose 30 mg/kg, route intraperitoneal; details: in vivo, 504 h
# Mus musculus [12] = assay: Toxicity in nude BALB/c mouse xenografted with human HT-29 cells assessed as change in liver weight at 50 mg/kg, ip qd after 21 days relative to vehicle-treated control; type: organism-based; design: dose 50 mg/kg, route intraperitoneal; details: in vivo, 504 h
# Mus musculus [13] = assay: Toxicity in nude BALB/c mouse xenografted with human HT-29 cells assessed as effect on ALT level at 50 mg/kg, ip qd after 21 days (reference value: 28 +/- 0.4 IU/L); type: organism-based; design: dose 50 mg/kg, route intraperitoneal; details: in vivo, 504 h
# Mus musculus [14] = assay: Toxicity in nude BALB/c mouse xenografted with human HT-29 cells assessed as effect on platelet count at 30 mg/kg, ip qd after 21 days (reference value: 1509 +/- 34 x 10^3 mm'-3); type: organism-based; design: dose 30 mg/kg, route intraperitoneal; details: in vivo, 504 h
# Mus musculus [15] = assay: Toxicity in nude BALB/c mouse xenografted with human HT-29 cells assessed as effect on ALP level at 30 mg/kg, ip qd after 21 days (reference value: 107.6 +/- 0.8 IU/L); type: organism-based; design: dose 30 mg/kg, route intraperitoneal; details: in vivo, 504 h
# Mus musculus [16] = assay: Toxicity in nude BALB/c mouse xenografted with human HT-29 cells assessed as effect on WBC count at 30 mg/kg, ip qd after 21 days (reference value: 25.38 +/- 0.22 x 10^3 mm'-3); type: organism-based; design: dose 30 mg/kg, route intraperitoneal; details: in vivo, 504 h
# Mus musculus [17] = assay: Toxicity in nude BALB/c mouse xenografted with human HT-29 cells assessed as effect on ALT level at 30 mg/kg, ip qd after 21 days (reference value: 28 +/- 0.4 IU/L); type: organism-based; design: dose 30 mg/kg, route intraperitoneal; details: in vivo, 504 h
# Mus musculus [18] = assay: Toxicity in nude BALB/c mouse xenografted with human HT-29 cells assessed as effect on lymphocyte count at 30 mg/kg, ip qd after 21 day (reference value: 15.88 +/- 0.41 x 10^3 mm'-3); type: organism-based; design: dose 30 mg/kg, route intraperitoneal; details: in vivo, 504 h
# Mus musculus [19] = assay: Toxicity in nude BALB/c mouse xenografted with human HT-29 cells assessed as effect on ALP level at 50 mg/kg, ip qd after 21 days (reference value: 107.6 +/- 0.8 IU/L); type: organism-based; design: dose 50 mg/kg, route intraperitoneal; details: in vivo, 504 h
# Mus musculus [20] = assay: Toxicity in nude BALB/c mouse xenografted with human HT-29 cells assessed as body weight change at 30 mg/kg, ip qd after 21 days (reference value: 2.7 g); type: organism-based; design: dose 30 mg/kg, route intraperitoneal; details: in vivo, 504 h
# Mus musculus [21] = assay: Toxicity in nude BALB/c mouse xenografted with human HT-29 cells assessed as change in spleen weight at 50 mg/kg, ip qd after 21 days relative to vehicle-treated control; type: organism-based; design: dose 50 mg/kg, route intraperitoneal; details: in vivo, 504 h
compound,measurement,setting,value
COc1ccc(/C=C\c2cc(OC)c(OC)c(OC)c2)cc1O [COMBRETASTATIN A4],Activity,Mus musculus [1],Non-toxic
same,Activity,Mus musculus [2],Toxic
same,Activity,Mus musculus [3],Toxic
same,T/C,HT-29 [4],53%
same,Activity,Mus musculus [5],2206 ×10³ /mm3
same,IC50,HCT-116,1 nM
same,Activity,Mus musculus [6],4.14 ×10³ /mm3
same,Activity,Mus musculus [7],1.8 g
same,IC50,MDA-MB-435,1 nM
same,IC50,CCRF-CEM,1 nM
same,Activity,Mus musculus [8],Non-toxic
same,T/C,HT-29 [9],47%
same,Activity,Mus musculus [10],12.09 ×10³ /mm3
same,Activity,Mus musculus [11],Non-toxic
same,Activity,Mus musculus [12],Toxic
same,Activity,Mus musculus [13],66.3 IU/L
same,Activity,Mus musculus [14],1923 ×10³ /mm3
same,Activity,Mus musculus [15],105.3 IU/L
same,Activity,Mus musculus [16],19.34 ×10³ /mm3
same,Activity,Mus musculus [17],25 IU/L
same,Activity,Mus musculus [18],10.62 ×10³ /mm3
same,Activity,Mus musculus [19],149.3 IU/L
same,Activity,Mus musculus [20],1.7 g
same,Activity,Mus musculus [21],Toxic
